Results taken from the NIST ThermoML archive (doi:10.1021/je700015t).
± gives the expanded uncertainty stated by the source.

Conditions: 101.33 kPa, Liquid

Row | SMILES | mass density (253.15 K) [kg/m3] | mass density (263.15 K) [kg/m3] | mass density (273.15 K) [kg/m3] | mass density (283.15 K) [kg/m3] | mass density (298.15 K) [kg/m3] | mass density (323.15 K) [kg/m3] | mass density (293.15 K) [kg/m3] | mass density (343.15 K) [kg/m3] | mass density (363.15 K) [kg/m3] | mass density (393.15 K) [kg/m3] | mass density (423.15 K) [kg/m3] | mass density (243.15 K) [kg/m3] | mass density (383.15 K) [kg/m3] | mass density (403.15 K) [kg/m3]
1 | CCCCBr [1-bromobutane] | 1326.5 ± 1.7 | 1313.8 ± 1.6 | 1300.5 ± 1.5 | 1286.4 ± 1.4 | 1265.7 ± 1.3 | 1229.5 ± 1.5 |  |  |  |  |  |  |  | 
2 | CCCCCCCCCCCCBr [1-bromododecane] |  |  | 1056.5 ± 1.3 | 1048.5 ± 1.2 | 1035.6 ± 1.2 | 1014 ± 1.4 | 1039.8 ± 1.1 | 996.2 ± 1.5 | 979 ± 1.7 | 952.4 ± 1.9 | 923.7 ± 2.2 |  |  | 
3 | CCCCCCCBr [1-bromoheptane] |  | 1169.6 ± 1.6 | 1159.2 ± 1.4 | 1148.7 ± 1.3 | 1132.9 ± 1.3 | 1106 ± 1.5 |  | 1084.5 ± 1.6 |  | 1026.6 ± 2 |  | 1191 ± 1.8 |  | 
4 | CCCCCCBr [1-bromohexane] | 1218 ± 1.7 |  | 1195.3 ± 1.5 | 1183.8 ± 1.3 | 1166.8 ± 1.3 | 1137.3 ± 1.5 |  | 1113.7 ± 1.6 | 1090.8 ± 1.8 |  |  |  | 1066.1 ± 1.9 | 1040.9 ± 2.1
5 | CCCCCCCCBr [1-bromooctane] | 1151.1 ± 1.7 | 1140.9 ± 1.5 | 1131.2 ± 1.4 | 1121.2 ± 1.3 | 1106 ± 1.3 | 1080.6 ± 1.5 | 1111 ± 1.2 | 1060.5 ± 1.6 | 1039.5 ± 1.8 | 1008.4 ± 2 |  |  |  | 
6 | CCCCCBr [1-bromopentane] | 1260.3 ± 2 | 1249.9 ± 1.9 | 1239.6 ± 1.8 |  | 1208.5 ± 1.6 | 1177.1 ± 1.8 | 1214.9 ± 1.6 | 1151 ± 1.9 | 1124.7 ± 2 | 1083.4 ± 2.2 |  |  | 1097.4 ± 2.2 | 
7 | CCCBr [1-bromopropane] | 1415.4 ± 1.8 | 1400.3 ± 1.7 | 1385.3 ± 1.6 | 1369.4 ± 1.5 | 1344.5 ± 1.4 |  |  |  |  |  |  | 1431.1 ± 1.9 |  | 
